Reference: patent US8980587B2, “Process for producing reveromycin A or a synthetic intermediate thereof, process for producing compounds containing a spiroketal ring and novel antineoplastics, fungicides and therapeutic agents for bone disorders” (RIKEN, priority 2010, dated 2015)
Converted amounts (≈) assume the structure as drawn. Like-named read-outs stand apart in the source and are kept apart here.

Columns and labels:
[1] = system: HL-60 cells (human acute promyelocytic leukemia cell line); assay: Growth-inhibiting activity against animal cells (WST-8), HL-60; type: cell-based; conditions: for IC50: Homo sapiens, read-out: HL60 IC50; for cancer cell growth-inhibiting activity (in words): summary of Table 5 (HL60, K562, tsFT210), RM-T as compared with RM-A
Protocol: (§1) HL-60 cells (human acute promyelocytic leukemia cell line) and K562 cells (human chronic myeloid leukemia cell line) were maintained in a culture medium in which RPMI1640 medium (manufactured by Invitrogen) was added with 10% fetal bovine serum (manufactured by Nichirei), 0.5% penicillin/streptomycin solution (manufactured by Invitrogen) at 37° C. under a humidified culture of 5% CO2. tsFT210 cells (mouse breast cancer cells CDC2 temperature sensitive strain) were maintained in a culture medium in which RPMI1640 medium (manufactured by Invitrogen) was added with 5% calf serum (manufactured by Hyclone) and 0.5% penicillin/streptomycin solution at 32° C. under a humidified culture of 5% CO2.
(§2) HL-60 cells and K562 cells were seeded in a 96-well plate (manufactured by IWAKI) so as to be 1.5×10^4 cells/well/100 μl. tsFT210 cells were seeded in a 96-well plate so as to be 1.6×10^4 cell/well/100 μl. Each of the agents in Table 5 was added at 0.5% (v/v). HL-60 cells and K562 cells were maintained at 37° C. under a humidified culture of 5% CO2 and tsFT210 cells were maintain at 32° C. under a humidified culture of 5% CO2. Forty eight hours after addition of the agent, 10 μl of a reagent SF solution for counting live cells (WST-8 reagent, manufactured by Nakarai tesque) was added to each well. HL-60 cells and K562 cells were maintained at 37° C. under a humidified culture of 5% CO2 for 30 minutes and tsFT210 cells were maintain at 32° C. under a humidified culture of 5% CO2 for one hour. After the reaction, absorbance at 450 nm was measured using a microplate reader (manufactured by PerkinElmer) and a cell proliferation rate was determined from the measurement value.

[2] = system: K562 cells (human chronic myeloid leukemia cell line); assay: Growth-inhibiting activity against animal cells (WST-8), K562; type: cell-based
Protocol: as §1, §2

[3] = system: tsFT210 cells (mouse breast cancer cells CDC2 temperature sensitive strain); assay: Growth-inhibiting activity against animal cells (WST-8), tsFT210; type: cell-based
Protocol: as §1, §2

[4] = system: Escherichia coli (HO141 strain); assay: Growth-inhibiting activity against Escherichia coli; type: cell-based; conditions: 6 hours, absorbance at 600 nm, read-out: E. coli IC50
Protocol: Escherichia coli (HO141 strain) was precultured in culture medium of 0.5% Polypeptone, 0.5% Meat Extract, 0.3% NaCl, and 0.001% Sodium Dodecyl Sulfate (SDS) at 37° C. Absorbance at 600 nm was measured, and Escherichia coli solution was prepared such that the absorbance is 0.005 and seeded 100 μl each in a 96-well plate. Each of the agents in Table 5 was added at 0.5% (v/v) and maintained at 37° C. Six hours after addition of the agent, absorbance at 600 nm was measured using a microplate reader (manufactured by PerkinElmer) and a proliferation rate was determined from the measurement value.

[5] = system: Budding yeast (MLC30M strain); assay: Growth-inhibiting activity against yeast; type: cell-based; conditions: for IC50: Saccharomyces cerevisiae, read-out: Yeast IC50
Protocol: Budding yeast (MLC30M strain) was precultured in a culture medium of 2% Polypeptone, 1% yeast extract, 2% glucose, 0.02% adenine, and 0.001% sodium dodecyl sulfate (SDS) at 30° C. Absorbance at 600 nm was measured, and yeast solution was prepared such that the absorbance is 0.05 and seeded 100 μl each in a 96-well plate. Each of the agents in Table 5 was added at 0.5% (v/v) and maintained at 30° C. Eighteen hours after addition of the agent, absorbance at 600 nm was measured using a microplate reader (manufactured by PerkinElmer) and a proliferation rate was determined from the measurement value.

osteoclasts = conditions: background art, Patent Document 1; cited from earlier work
[6] = system: bone metastasis of tumors; conditions: background art, Patent Document 1; cited from earlier work
[7] = K562, 48 h, read-out: K562 IC50
[8] = tsFT210, 48 h, read-out: tsFT210 IC50

Compound	IC50 ([1]; HL-60, 48 h) [µg/mL]	cancer cell growth-inhibiting activity (in words) [1]	IC50 [2, 7] [µg/mL]	IC50 [3, 8] [µg/mL]	IC50 [4] [µg/mL]	IC50 ([5]; 18 h) [µg/mL]	growth-inhibiting activity against yeast (in words) ([5]; summary of Table 5)	apoptosis of osteoclasts (in words) (osteoclasts)	bone metastasis of tumors (in words) [6]	IC50 ([1]; HL-60 cells, 48 hours after addition of the agent, WST-8) [µg/mL]	IC50 ([2]; K562 cells, 48 hours after addition of the agent, WST-8, read-out: K562 IC50) [µg/mL]	IC50 ([3]; tsFT210 cells, 32° C., 48 hours after addition of the agent, WST-8, read-out: tsFT210 IC50) [µg/mL]	IC50 ([5]; MLC30M strain, 18 hours, absorbance at 600 nm) [µg/mL]
CCCCC1CCC2(CCC(C)C(C/C=C(C)/C=C/C(O)C(C)/C=C/C(=O)O)O2)OC1/C=C/C(C)=C/C(=O)O (centres unmarked) [RM-T]	0.2 (≈ 0.367 µM)	higher	0.7 (≈ 1.29 µM)	0.4 (≈ 0.734 µM)	> 50	0.05 (≈ 0.0918 µM)	exhibited growth-inhibiting activity against yeast	–	–	–	–	–	–
CCCCCC[C@@]1(OC(=O)CCC(=O)O)CC[C@]2(CC[C@H](C)[C@@H](C/C=C(C)/C=C/[C@H](O)[C@@H](C)/C=C/C(=O)O)O2)O[C@H]1/C=C/C(C)=C/C(=O)O [RM-E]	1.5 (≈ 2.18 µM)	high	1.9 (≈ 2.76 µM)	7 (≈ 10.2 µM)	> 50	2.3 (≈ 3.34 µM)	–	–	–	–	–	–	–
CCCC[C@@]1(OC(=O)CCC(=O)O)CC[C@]2(CC[C@H](C)[C@@H](C/C=C(C)/C=C/[C@H](O)[C@@H](C)/C=C/C(=O)O)O2)O[C@H]1/C=C/C(C)=C/C(=O)O [RM-A, Reveromycin A]	2.7 (≈ 4.09 µM)	–	4.9 (≈ 7.42 µM)	8.5 (≈ 12.9 µM)	> 50	4.3 (≈ 6.51 µM)	–	induce apoptosis selectively for osteoclasts at low concentrations	suppress bone metastasis of tumors	–	–	–	–
CCCC[C@H]1CC[C@]2(CC[C@H](C)[C@@H](C/C=C(C)/C=C/[C@H](O)[C@@H](C)/C=C/C(=O)OCC)O2)O[C@H]1/C=C/C(C)=C/C(=O)O [RM-T ethyl-ester]	–	high	–	–	> 50	–	–	–	–	0.2 (≈ 0.349 µM)	0.7 (≈ 1.22 µM)	11.4 (≈ 19.9 µM)	> 50
